Assay results: patent US8362008B2 (The University Of Edinburgh, priority 2007, dated 2013)

How the values were obtained:
human 11β-HSD2 = biological target: T1, human 11β-HSD2 (Homo sapiens, UniProt P80365); experiment: Cellular in vitro 11β-HSD2 enzyme inhibition assay (CHO cells, TLC/phosphoimager); assay type: cell-based; conditions: CHO cells stably transfected with human 11β-HSD2; Table 1
T1 construct: CHO cells stably transfected with the full-length gene coding for human 11β-HSD2 were used; expressed in transfected cells; host or cells: CHO
T1 sequence (P80365 1-405): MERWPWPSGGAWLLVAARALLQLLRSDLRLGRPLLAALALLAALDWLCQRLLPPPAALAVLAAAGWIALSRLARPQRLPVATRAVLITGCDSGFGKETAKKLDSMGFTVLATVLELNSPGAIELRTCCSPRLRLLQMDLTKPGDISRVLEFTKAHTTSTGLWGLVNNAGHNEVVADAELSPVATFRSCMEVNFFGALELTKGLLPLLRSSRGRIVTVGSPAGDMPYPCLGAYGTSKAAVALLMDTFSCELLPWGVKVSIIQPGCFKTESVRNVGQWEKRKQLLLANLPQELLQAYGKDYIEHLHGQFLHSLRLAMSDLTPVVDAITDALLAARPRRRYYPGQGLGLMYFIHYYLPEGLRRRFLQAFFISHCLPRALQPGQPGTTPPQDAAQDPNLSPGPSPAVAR
Experimental: Cellular In Vitro 11β-HSD2 Enzyme Inhibition Assay
For measurement of inhibition of 11β-HSD2, CHO cells stably transfected with the full-length gene coding for human 11β-HSD2 were used. Assays were carried out in 96-well microplates containing 1×10^5 cells/well. Controls and compounds were plated as above, so that the final DMSO concentration in each well was 1%. To initiate the assay, 90 μL of a solution of HAMS F-12 medium containing 1% glutamine, 1% penicillin and streptomycin, and 22 nM tritiated cortisol was added to each well of the assay plate. The plate was then incubated in 5% CO2, 95% O2 at 37° C. for 16 hours.
The assay solutions were transferred to glass tubes and 20 μL ethyl acetate added to each tube. Each tube was vortexed thoroughly and the upper layer containing the tritiated steroid transferred to a fresh glass tube. The solvent was evaporated by placing the tubes in a heating block at 65° C. under a stream of Nitrogen gas. 20 μL ethanol was added to each of the dried samples and vortexed briefly. Each sample was applied to a silica TLC plate and the plate dried. The plate was placed vertically in a glass tank containing 92% chloroform:8% ethanol and the solvent allowed to rise up the plate. The plate was dried, placed in an imaging cassette, and overlayed with a tritium imaging plate for 1-2 days. The amount of enzyme inhibition in each sample was determined by measuring the intensity of the substrate and product spots using a phosphoimager.
IC50 values for inhibitors were determined as described for 11β-HSD1.

human 11β-HSD1 enzyme = biological target: T2, human 11β-HSD1 enzyme (Homo sapiens, UniProt P28845); experiment: Cellular in vitro 11β-HSD1 enzyme inhibition assay (SPA, HEK293/11β-HSD1 cells); assay type: cell-based
T2 construct: stably transfected with a construct containing the full-length gene coding for the human 11β-HSD1 enzyme; expressed in transfected cells; host or cells: HEK293 (HEK293/11β-HSD1 cells)
Summary of the method: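 Stably transfected HEK293 cells expressing full-length human 11β-HSD1 were plated 24 h, then incubated with compound 2 h at 37 °C; cortisol formed was quantified by SPA with anti-cortisol antibody. Percent inhibition used no-cell (minimum) and no-compound (maximum) wells; IC50 from four-parameter logistic fit.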

[1] = HEK293, less than or equal to 1000 nM (1 μM)
[2] = HEK293 cells stably transfected with human 11β-HSD1, Table 1

T2 sequence (P28845 whole entry): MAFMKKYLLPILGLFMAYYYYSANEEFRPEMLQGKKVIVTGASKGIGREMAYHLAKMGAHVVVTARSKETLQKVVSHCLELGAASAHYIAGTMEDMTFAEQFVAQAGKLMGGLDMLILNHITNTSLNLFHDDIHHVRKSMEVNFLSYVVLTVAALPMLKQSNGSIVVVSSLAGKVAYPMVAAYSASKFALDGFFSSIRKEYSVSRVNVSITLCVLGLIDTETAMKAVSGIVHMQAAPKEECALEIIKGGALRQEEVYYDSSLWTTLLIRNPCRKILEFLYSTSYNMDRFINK

Row | IC50 (human 11β-HSD2) [nM] | IC50 (human 11β-HSD1 enzyme; [1]) [nM] | IC50 (human 11β-HSD1 enzyme; [2]) [nM] | SMILES
1 | > 10000 | ≤ 1000 | 20 | CC(=O)N1CCC(c2cc(C(=O)N3CCC[C@@H]4CCCC[C@@H]43)cs2)C1 (relative stereo) [CC-111, cis-1-{3-[4-(Octahydro-quinoline-1-carbonyl)-thiophen-2-yl]-pyrrolidin-1-yl}ethanone]
2 | > 10000 |  | 127 | O=C(c1csc(C2CCNCC2)c1)N1CCC[C@@H]2CCCC[C@@H]21 (single isomer, unassigned) [CC-033, cis-(octahydro-quinolin-1-yl)-(5-piperidin-4-yl-thiophen-3-yl)-methanone]
3 | > 10000 | ≤ 1000 | 281 | CCc1cc(C(=O)N2CCCCC2)c(Cl)s1 [AA-001, (2-Chloro-5-ethyl-thiophen-3-yl)-piperidin-1-yl-methanone]
4 | > 10000 | ≤ 1000 | 4 | CCc1cc(C(=O)N2CC3(C)CC2CC(C)(C)C3)cs1 (centres unmarked) [AA-014, (5-Ethyl-thiophen-3-yl)-(1,3,3-trimethyl-6-aza-bicyclo[3.2.1]oct-6-yl)-methanone]
5 | > 10000 | ≤ 1000 | 68 | COCc1cc(C(=O)N2CCCC3(CCCCC3)C2)cs1 [BB-007]
6 | > 10000 | ≤ 1000 | 150 | CC1(C)CCCN(C(=O)c2csc(C3CCOCC3)c2)C1 [CC-003]
7 | > 10000 | ≤ 1000 | 96 | CNC(=O)N1CCC(c2cc(C(=O)N3CCCC4CCCCC43)cs2)CC1 (centres unmarked) [CC-106]
8 | > 10000 | ≤ 1000 | 61 | COC(=O)N1CCC(c2cc(C(=O)N3CCCCC3c3ccccc3)cs2)CC1 (centres unmarked) [CC-119]
9 | > 10000 | ≤ 1000 | 77 | CS(=O)(=O)NCCNC(=O)N1CCC(c2cc(C(=O)N3CCCC4CCCCC43)cs2)CC1 (stereo not drawn) [CC-168, cis-4-[4-(Octahydro-quinoline-1-carbonyl)-thiophen-2-yl]-piperidine-1-carboxylic acid(2-methanesulfonylamino-ethyl)-amide]
10 | > 10000 | ≤ 1000 | 23 | CC1(C)CCCN(C(=O)c2csc(C3CCN(C(=O)NCCO)CC3)c2)CC1 [CC-175]
11 | > 10000 | ≤ 1000 | 882 | O=C(c1csc(C2CCCCC2)c1)N1CCCCCC1 [DD-002, Azepan-1-yl-(5-cyclohexyl-thiophen-3-yl)-methanone]
